Laboratory results reported in PubChem BioAssay (NCI).
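Cultured in 96-well plates, cells were exposed to test compound for 48 hours across five concentrations. GI50 is the concentration that inhibits growth by half. TGI: concentration producing complete growth inhibition.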

Tests used:
Test in all cases: growth of human tumour cells (NCI), 48 h
LOX IMVI melanoma = tested on: LOX IMVI melanoma
NCI-H23 lung = tested on: NCI-H23 lung
HCC-2998 colon = tested on: HCC-2998 colon
M14 melanoma = tested on: M14 melanoma
MCF7 breast = tested on: MCF7 breast
HOP-92 NSCLC = tested on: HOP-92 NSCLC
HL-60(TB) leukemia = tested on: HL-60(TB) leukemia
A549 NSCLC = tested on: A549 NSCLC
UO-31 renal = tested on: UO-31 renal
DU-145 prostate = tested on: DU-145 prostate
HCT-116 colon = tested on: HCT-116 colon
NCI-H226 lung = tested on: NCI-H226 lung
SR leukemia = tested on: SR leukemia
CAKI-1 renal = tested on: CAKI-1 renal
HT29 colon = tested on: HT29 colon
RPMI-8226 leukemia = tested on: RPMI-8226 leukemia
SK-MEL-5 melanoma = tested on: SK-MEL-5 melanoma
UACC-62 melanoma = tested on: UACC-62 melanoma
IGROV1 ovarian = tested on: IGROV1 ovarian
NCI/ADR-RES ovarian = tested on: NCI/ADR-RES ovarian
SNB-75 CNS = tested on: SNB-75 CNS
SN12C renal = tested on: SN12C renal
786-0 renal = tested on: 786-0 renal
SF-295 CNS = tested on: SF-295 CNS
PC-3 prostate = tested on: PC-3 prostate
HS 578T breast = tested on: HS 578T breast
HOP-62 NSCLC = tested on: HOP-62 NSCLC
OVCAR-8 ovarian = tested on: OVCAR-8 ovarian
ACHN renal = tested on: ACHN renal
KM12 colon = tested on: KM12 colon
MDA-MB-231 breast = tested on: MDA-MB-231 breast
U251 CNS = tested on: U251 CNS
HCT-15 colon = tested on: HCT-15 colon
SW-620 colon = tested on: SW-620 colon
MALME-3M melanoma = tested on: MALME-3M melanoma
SK-MEL-28 melanoma = tested on: SK-MEL-28 melanoma
OVCAR-3 ovarian = tested on: OVCAR-3 ovarian
UACC-257 melanoma = tested on: UACC-257 melanoma
SF-268 CNS = tested on: SF-268 CNS
K-562 leukemia = tested on: K-562 leukemia
RXF 393 renal = tested on: RXF 393 renal
SNB-19 CNS = tested on: SNB-19 CNS
NCI-H522 lung = tested on: NCI-H522 lung
MOLT-4 leukemia = tested on: MOLT-4 leukemia
SK-MEL-2 melanoma = tested on: SK-MEL-2 melanoma
TK-10 renal = tested on: TK-10 renal
OVCAR-5 ovarian = tested on: OVCAR-5 ovarian
NCI-H460 lung = tested on: NCI-H460 lung
T-47D breast = tested on: T-47D breast
SF-539 CNS = tested on: SF-539 CNS
BT-549 breast = tested on: BT-549 breast
SK-OV-3 ovarian = tested on: SK-OV-3 ovarian
COLO 205 colon = tested on: COLO 205 colon
EKVX NSCLC = tested on: EKVX NSCLC
CCRF-CEM leukemia = tested on: CCRF-CEM leukemia
A498 renal = tested on: A498 renal
OVCAR-4 ovarian = tested on: OVCAR-4 ovarian

Compound: CCOC(=O)Nn1c(C)nnc1CC#N
- TGI (LOX IMVI melanoma): > 100 µM
- TGI (NCI-H23 lung): > 100 µM
- TGI (HCC-2998 colon): > 100 µM
- TGI (M14 melanoma): > 100 µM
- TGI (MCF7 breast): > 100 µM
- TGI (HOP-92 NSCLC): > 100 µM
- TGI (HL-60(TB) leukemia): > 100 µM
- TGI (A549 NSCLC): > 100 µM
- TGI (UO-31 renal): > 100 µM
- TGI (DU-145 prostate): > 100 µM
- TGI (HCT-116 colon): > 100 µM
- TGI (NCI-H226 lung): > 100 µM
- TGI (SR leukemia): > 100 µM
- TGI (CAKI-1 renal): > 100 µM
- TGI (HT29 colon): > 100 µM
- TGI (RPMI-8226 leukemia): > 100 µM
- TGI (SK-MEL-5 melanoma): > 100 µM
- TGI (UACC-62 melanoma): > 100 µM
- TGI (IGROV1 ovarian): > 100 µM
- TGI (NCI/ADR-RES ovarian): > 100 µM
- TGI (SNB-75 CNS): > 100 µM
- TGI (SN12C renal): > 100 µM
- TGI (786-0 renal): > 100 µM
- TGI (SF-295 CNS): > 100 µM
- TGI (PC-3 prostate): > 100 µM
- TGI (HS 578T breast): > 100 µM
- TGI (HOP-62 NSCLC): > 100 µM
- TGI (OVCAR-8 ovarian): > 100 µM
- TGI (ACHN renal): > 100 µM
- TGI (KM12 colon): > 100 µM
- TGI (MDA-MB-231 breast): > 100 µM
- TGI (U251 CNS): > 100 µM
- TGI (HCT-15 colon): > 100 µM
- TGI (SW-620 colon): > 100 µM
- TGI (MALME-3M melanoma): > 100 µM
- TGI (SK-MEL-28 melanoma): > 100 µM
- TGI (OVCAR-3 ovarian): > 100 µM
- TGI (UACC-257 melanoma): > 100 µM
- TGI (SF-268 CNS): > 100 µM
- TGI (K-562 leukemia): > 100 µM
- TGI (RXF 393 renal): > 100 µM
- TGI (SNB-19 CNS): > 100 µM
- TGI (NCI-H522 lung): > 100 µM
- TGI (MOLT-4 leukemia): > 100 µM
- TGI (SK-MEL-2 melanoma): > 100 µM
- TGI (TK-10 renal): > 100 µM
- TGI (OVCAR-5 ovarian): > 100 µM
- TGI (NCI-H460 lung): > 100 µM
- TGI (T-47D breast): > 100 µM
- TGI (SF-539 CNS): > 100 µM
- TGI (BT-549 breast): > 100 µM

Compound: COc1ccc2[nH]c(-c3ccccc3)c(/C=C(\C#N)S(=O)(=O)c3ccccc3)c2c1
- GI50 (LOX IMVI melanoma): 7.4 µM
- TGI (LOX IMVI melanoma): > 100 µM
- GI50 (NCI-H23 lung): 7.97 µM
- TGI (NCI-H23 lung): > 100 µM
- GI50 (HCC-2998 colon): 18.7 µM
- TGI (HCC-2998 colon): > 100 µM
- GI50 (M14 melanoma): 3.72 µM
- TGI (M14 melanoma): > 100 µM
- GI50 (MCF7 breast): 3.93 µM
- TGI (MCF7 breast): > 100 µM
- GI50 (HOP-92 NSCLC): 6.05 µM
- TGI (HOP-92 NSCLC): 36.3 µM
- GI50 (HL-60(TB) leukemia): 2.38 µM
- TGI (HL-60(TB) leukemia): 7.11 µM
- GI50 (A549 NSCLC): 5.98 µM
- TGI (A549 NSCLC): > 100 µM
- GI50 (UO-31 renal): 4.03 µM
- TGI (UO-31 renal): 34.5 µM
- GI50 (DU-145 prostate): 10.1 µM
- TGI (DU-145 prostate): > 100 µM
- GI50 (HCT-116 colon): 3.74 µM
- TGI (HCT-116 colon): > 100 µM
- GI50 (NCI-H226 lung): 9.41 µM
- TGI (NCI-H226 lung): > 100 µM
- GI50 (SR leukemia): 2.21 µM
- TGI (SR leukemia): 15.7 µM
- GI50 (CAKI-1 renal): 4.47 µM
- TGI (CAKI-1 renal): 43.4 µM
- GI50 (HT29 colon): 3.49 µM
- TGI (HT29 colon): > 100 µM
- GI50 (SK-MEL-5 melanoma): 3.05 µM
- TGI (SK-MEL-5 melanoma): 29.3 µM
- GI50 (SK-OV-3 ovarian): 7.05 µM
- TGI (SK-OV-3 ovarian): 66.7 µM
- GI50 (UACC-62 melanoma): 3.83 µM
- TGI (UACC-62 melanoma): 60.7 µM
- GI50 (IGROV1 ovarian): 4.79 µM
- TGI (IGROV1 ovarian): 25.5 µM
- GI50 (NCI/ADR-RES ovarian): 3.83 µM
- TGI (NCI/ADR-RES ovarian): > 100 µM
- GI50 (SNB-75 CNS): 5.92 µM
- TGI (SNB-75 CNS): 44.8 µM
- GI50 (SN12C renal): 7.76 µM
- TGI (SN12C renal): > 100 µM
- GI50 (786-0 renal): 6.07 µM
- TGI (786-0 renal): > 100 µM
- GI50 (SF-295 CNS): 2.79 µM
- TGI (SF-295 CNS): 28.7 µM
- GI50 (PC-3 prostate): 8.3 µM
- TGI (PC-3 prostate): > 100 µM
- GI50 (HS 578T breast): 7.59 µM
- TGI (HS 578T breast): 85.5 µM
- GI50 (HOP-62 NSCLC): 8.38 µM
- TGI (HOP-62 NSCLC): > 100 µM
- GI50 (OVCAR-8 ovarian): 7.96 µM
- TGI (OVCAR-8 ovarian): > 100 µM
- GI50 (ACHN renal): 12.9 µM
- TGI (ACHN renal): > 100 µM
- GI50 (KM12 colon): 2.96 µM
- TGI (KM12 colon): > 100 µM
- GI50 (MDA-MB-231 breast): 7.48 µM
- TGI (MDA-MB-231 breast): > 100 µM
- GI50 (U251 CNS): 4.59 µM
- TGI (U251 CNS): > 100 µM
- GI50 (HCT-15 colon): 4.02 µM
- TGI (HCT-15 colon): > 100 µM
- GI50 (SW-620 colon): 3.97 µM
- TGI (SW-620 colon): > 100 µM
- GI50 (MALME-3M melanoma): 19.4 µM
- TGI (MALME-3M melanoma): > 100 µM
- GI50 (SK-MEL-28 melanoma): 6.05 µM
- TGI (SK-MEL-28 melanoma): > 100 µM
- GI50 (OVCAR-3 ovarian): 4.96 µM
- TGI (OVCAR-3 ovarian): 24.4 µM
- GI50 (UACC-257 melanoma): 4.92 µM
- TGI (UACC-257 melanoma): 69 µM
- GI50 (SF-268 CNS): 13.3 µM
- TGI (SF-268 CNS): > 100 µM
- GI50 (K-562 leukemia): 1.42 µM
- TGI (K-562 leukemia): > 100 µM
- GI50 (SNB-19 CNS): 13.5 µM
- TGI (SNB-19 CNS): > 100 µM
- GI50 (NCI-H522 lung): 3.98 µM
- TGI (NCI-H522 lung): 46.7 µM
- GI50 (MOLT-4 leukemia): 4.7 µM
- TGI (MOLT-4 leukemia): > 100 µM
- GI50 (SK-MEL-2 melanoma): 3.7 µM
- TGI (SK-MEL-2 melanoma): 20.3 µM
- GI50 (COLO 205 colon): 7.35 µM
- TGI (COLO 205 colon): > 100 µM
- GI50 (TK-10 renal): 17.5 µM
- TGI (TK-10 renal): > 100 µM
- GI50 (EKVX NSCLC): 6.86 µM
- TGI (EKVX NSCLC): > 100 µM
- GI50 (CCRF-CEM leukemia): 6.52 µM
- TGI (CCRF-CEM leukemia): > 100 µM
- GI50 (OVCAR-5 ovarian): 37.3 µM
- TGI (OVCAR-5 ovarian): > 100 µM
- GI50 (NCI-H460 lung): 4.55 µM
- TGI (NCI-H460 lung): > 100 µM
- GI50 (T-47D breast): 5.18 µM
- TGI (T-47D breast): > 100 µM
- GI50 (A498 renal): 9.31 µM
- TGI (A498 renal): 44.6 µM
- GI50 (SF-539 CNS): 5.48 µM
- TGI (SF-539 CNS): 34.7 µM
- GI50 (OVCAR-4 ovarian): 8.33 µM
- TGI (OVCAR-4 ovarian): > 100 µM
- GI50 (BT-549 breast): 11.6 µM
- TGI (BT-549 breast): > 100 µM
